Target: MAPK14 (UniProt Q16539)
Experiment: Inhibition of MAPK14 Kinase Activity

MAPK14, sequence (Q16539 whole entry, looked up): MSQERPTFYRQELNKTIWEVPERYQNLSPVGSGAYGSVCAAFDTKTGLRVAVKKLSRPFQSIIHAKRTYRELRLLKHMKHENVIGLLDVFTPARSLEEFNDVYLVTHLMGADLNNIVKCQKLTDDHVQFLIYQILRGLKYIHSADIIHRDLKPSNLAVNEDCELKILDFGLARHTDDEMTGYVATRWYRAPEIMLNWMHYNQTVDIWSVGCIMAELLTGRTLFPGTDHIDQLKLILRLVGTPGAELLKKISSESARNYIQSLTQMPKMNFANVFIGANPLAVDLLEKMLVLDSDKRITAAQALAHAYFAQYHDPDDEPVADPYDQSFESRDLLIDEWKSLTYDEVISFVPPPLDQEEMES

| Structure (SMILES) | IC50 [µM] |
| --- | --- |
| COc1cccc(CNC(=O)c2ccc(-c3cc(C(=O)NC4CC4)ccc3C)nc2)c1 | < 10 |
| Cc1c(F)cc(C(=O)NC2CC2)cc1-c1ccc(C(=O)NCC2CCCCC2)cn1 | < 10 |
| Cc1csc(CNC(=O)c2ccc(-c3cc(C(=O)NC4CC4)cc(F)c3C)nc2)n1 | < 10 |
| Cc1cccc(NC(=O)c2ccc(-c3cc(C(=O)NC4CC4)cc(F)c3C)nc2)c1 | < 10 |
| CCCC(C)(C)NC(=O)c1ccc(-c2cc(C(=O)NC3CC3)cc(F)c2C)nc1 | < 10 |
| CCN(C(=O)c1ccc(-c2cc(C(=O)NC3CC3)cc(F)c2C)nc1)C(C)C | < 10 |
| Cc1c(F)cc(C(=O)NC2CC2)cc1-c1ccc(C(=O)NCCc2ccccc2)cn1 | < 10 |
| CCCC(O)C(C)(C)NC(=O)c1ccc(-c2cc(C(=O)NC3CC3)cc(F)c2C)nc1 (configuration not stated) | < 10 |
| CCC(C)(CC)NC(=O)c1ccc(-c2cc(C(=O)NC3CC3)cc(F)c2C)nc1 | < 10 |
| Cc1ccc(C(=O)NC2CC2)cc1-c1ccc(C(=O)NCc2cccc(NS(C)(=O)=O)c2)cn1 | < 10 |
| Cc1c(F)cc(C(=O)NC2CC2)cc1-c1ccc(C(=O)NCc2ccc(F)cc2F)cn1 | < 10 |
| Cc1c(F)cc(C(=O)NC2CC2)cc1-c1ccc(C(=O)NCc2ccc(F)c(Cl)c2)cn1 | < 10 |
| COC(C)(C)CNC(=O)c1ccc(-c2cc(C(=O)NC3CC3)cc(F)c2C)nc1 | < 10 |
| Cc1c(F)cc(C(=O)NC2CC2)cc1-c1ccc(C(=O)NCC2CCCC2)cn1 | < 10 |
| Cc1c(F)cc(C(=O)NC2CC2)cc1-c1ccc(C(=O)NCc2ccccc2F)cn1 | < 10 |
| Cc1c(F)cc(C(=O)NC2CC2)cc1-c1ccc(C(=O)NC2CC2)cn1 | < 10 |
| Cc1c(F)cc(C(=O)NC2CC2)cc1-c1ccc(C(=O)N2CCC(C)CC2)cn1 | < 10 |
| COc1ccc(NC(=O)c2ccc(-c3cc(C(=O)NCC4CC4)ccc3C)nc2)cc1 | < 10 |
| Cc1ccc(C(=O)Nc2nncs2)cc1-c1ccc(C(=O)Nc2ccccc2CN2CCN(C)CC2)cn1 | < 10 |
| Cc1c(F)cc(C(=O)NC2CC2)cc1-c1ccc(C(=O)NC(C)Cc2nccs2)cn1 (configuration not stated) | < 10 |
| Cc1ccc(C(=O)Nc2cccc(-c3ccccn3)c2)cc1-c1ccc(C(=O)NCC2CC2)cn1 | < 10 |
| Cc1c(F)cc(C(=O)NC2CC2)cc1-c1ccc(C(=O)NCc2cc(F)c(F)cc2F)cn1 | < 10 |
